Experimental data as given in ChEMBL document CHEMBL1201862, “PubChem BioAssay data set” (2004).
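Growth conditions: 96-well plates. Treatment: test compound, 48 hours, 5 concentrations. Analysis: linear interpolation between bracketing concentrations; unreached endpoints set to highest concentration. GI50: concentration for 50% inhibition of growth.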 The source made the active and inactive calls. Cut-off read from the data, not from the text of the source: active = GI50 up to about 1.1 µM and inactive = higher.

Tests used:
Test in all cases: growth of human tumour cells (NCI), 48 h
786-0 = system: 786-0
A498 = system: A498
CAKI-1 = system: CAKI-1
COLO 205 = system: COLO 205
HCT-15 = system: HCT-15
HOP-62 = system: HOP-62
HT-29 = system: HT-29
IGROV-1 = system: IGROV-1
K562 = system: K562
MOLT-4 = system: MOLT-4
NCI-H226 = system: NCI-H226
OVCAR-5 = system: OVCAR-5
SF-539 = system: SF-539
SK-MEL-28 = system: SK-MEL-28
SK-MEL-2 = system: SK-MEL-2
SK-MEL-5 = system: SK-MEL-5
SK-OV-3 = system: SK-OV-3
SN12C = system: SN12C
UO-31 = system: UO-31

Row | Structure (SMILES) | GI50 (786-0) | GI50 (A498) | GI50 (CAKI-1) | GI50 (COLO 205) | GI50 (HCT-15) [µM] | GI50 (HOP-62) | GI50 (HT-29) | GI50 (IGROV-1) | GI50 (K562) | GI50 (MOLT-4) | GI50 (NCI-H226) | GI50 (OVCAR-5) | GI50 (SF-539) | GI50 (SK-MEL-28) | GI50 (SK-MEL-2) | GI50 (SK-MEL-5) | GI50 (SK-OV-3) | GI50 (SN12C) | GI50 (UO-31)
1 | Cc1cc(=O)n(-c2c(C)cccc2Cl)c(/C=C(\O)c2ccncc2)n1 | > 100 µM (inactive) | > 100 µM (inactive) | > 100 µM (inactive) | > 100 µM (inactive) | > 100 | > 100 µM (inactive) | > 100 µM (inactive) | > 100 µM (inactive) | 44.8 µM (inactive) | > 100 µM (inactive) | > 100 µM (inactive) | 98.6 µM (inactive) | > 100 µM (inactive) | > 100 µM (inactive) | > 100 µM (inactive) | 96.4 µM (inactive) | > 100 µM (inactive) | > 100 µM (inactive) | 35.3 µM (inactive)
2 | CC(C)c1ccc(Cc2ccc(C(C)C)c(NC(=O)C(=O)Cc3cnc4ccccc4n3)c2C(C)C)c(C(C)C)c1NC(=O)C(=O)Cc1cnc2ccccc2n1 | > 100 µM (inactive) | > 100 µM (inactive) | 98.9 µM (inactive) | > 100 µM (inactive) | > 100 | > 100 µM (inactive) |  | > 100 µM (inactive) | > 100 µM (inactive) | > 100 µM (inactive) |  | > 100 µM (inactive) | > 100 µM (inactive) |  | > 100 µM (inactive) | > 100 µM (inactive) | > 100 µM (inactive) |  | 53 µM (inactive)
3 | CCCNC(=O)C1C(=O)C(=O)N(CCC)C1=O (stereo not given) | > 100 µM (inactive) | > 100 µM (inactive) | > 100 µM (inactive) | > 100 µM (inactive) | > 100 | > 100 µM (inactive) | > 100 µM (inactive) | > 100 µM (inactive) | > 100 µM (inactive) | > 100 µM (inactive) |  | 56.9 µM (inactive) | > 100 µM (inactive) | > 100 µM (inactive) | > 100 µM (inactive) | > 100 µM (inactive) | > 100 µM (inactive) | > 100 µM (inactive) | > 100 µM (inactive)
4 | O=C1Cc2ccccc2N1/N=C\c1ccc([N+](=O)[O-])cc1 | > 100 µM (inactive) | > 100 µM (inactive) | > 100 µM (inactive) | > 100 µM (inactive) | > 100 | > 100 µM (inactive) | > 100 µM (inactive) | > 100 µM (inactive) | > 100 µM (inactive) | > 100 µM (inactive) | > 100 µM (inactive) | > 100 µM (inactive) | > 100 µM (inactive) | > 100 µM (inactive) | > 100 µM (inactive) | > 100 µM (inactive) | > 100 µM (inactive) |  | > 100 µM (inactive)
5 | O=C(CC/C(CC(=O)c1ccc(Cl)cc1)=N\O)Nc1cccc(Cl)c1 | > 100 µM (inactive) | > 100 µM (inactive) | > 100 µM (inactive) | > 100 µM (inactive) | > 100 | > 100 µM (inactive) | > 100 µM (inactive) | > 100 µM (inactive) | > 100 µM (inactive) | > 100 µM (inactive) |  | > 100 µM (inactive) | > 100 µM (inactive) | > 100 µM (inactive) | > 100 µM (inactive) | > 100 µM (inactive) | > 100 µM (inactive) | > 100 µM (inactive) | > 100 µM (inactive)
6 | N#CC(C(=O)CCC(=O)Nc1cccc(C(F)(F)F)c1)c1ccc(Cl)cc1 (stereo not given) | > 100 µM (inactive) | > 100 µM (inactive) | > 100 µM (inactive) | > 100 µM (inactive) | > 100 | > 100 µM (inactive) | > 100 µM (inactive) | > 100 µM (inactive) | > 100 µM (inactive) | > 100 µM (inactive) | > 100 µM (inactive) | > 100 µM (inactive) | > 100 µM (inactive) |  |  | > 100 µM (inactive) | > 100 µM (inactive) | > 100 µM (inactive) | > 100 µM (inactive)
7 | COc1cc2ccc(C(=O)O)cc2cc1OC | > 100 µM (inactive) | 49.7 µM (inactive) |  | > 100 µM (inactive) | > 100 | > 100 µM (inactive) | > 100 µM (inactive) | > 100 µM (inactive) | > 100 µM (inactive) | > 100 µM (inactive) | > 100 µM (inactive) | > 100 µM (inactive) | > 100 µM (inactive) | > 100 µM (inactive) | > 100 µM (inactive) | > 100 µM (inactive) | > 100 µM (inactive) | > 100 µM (inactive) | > 100 µM (inactive)
8 | COc1cc2c(cc1O)C1Cc3ccc(OC)c(O)c3C(C2)N1C (stereo not given) | > 100 µM (inactive) | > 100 µM (inactive) | > 100 µM (inactive) | > 100 µM (inactive) | > 100 | 92.9 µM (inactive) | 71 µM (inactive) | > 100 µM (inactive) |  | 58.1 µM (inactive) | > 100 µM (inactive) | > 100 µM (inactive) | > 100 µM (inactive) | > 100 µM (inactive) | > 100 µM (inactive) | > 100 µM (inactive) | > 100 µM (inactive) | > 100 µM (inactive) | > 100 µM (inactive)
9 | CC1CC/C(=C\c2ccc(F)cc2)C2=C1C(c1ccc(F)cc1)NC(=S)N2 (stereo not given) | 63.4 µM (inactive) | 30.5 µM (inactive) | 57.8 µM (inactive) | 30.6 µM (inactive) | 41 |  | 29 µM (inactive) | 43.5 µM (inactive) | 35.5 µM (inactive) | 49.2 µM (inactive) | 46.1 µM (inactive) |  | > 100 µM (inactive) | 88.3 µM (inactive) | 28.2 µM (inactive) | 31 µM (inactive) | > 100 µM (inactive) | 97.7 µM (inactive) | 23.2 µM (inactive)
10 | C#CCOC(=O)C(N)CS (stereo not given) | > 100 µM (inactive) | > 100 µM (inactive) | > 100 µM (inactive) | > 100 µM (inactive) |  | > 100 µM (inactive) | > 100 µM (inactive) | > 100 µM (inactive) | > 100 µM (inactive) | > 100 µM (inactive) | > 100 µM (inactive) | > 100 µM (inactive) |  | > 100 µM (inactive) | > 100 µM (inactive) | > 100 µM (inactive) | > 100 µM (inactive) | > 100 µM (inactive) | > 100 µM (inactive)
11 | CCOP(=O)(OCC)OC1c2[nH]ccc2-c2cc(C(=O)OC)[nH]c2C1OC (stereo not given) | > 100 µM (inactive) |  | 70.3 µM (inactive) | > 100 µM (inactive) | 59.3 | 87.3 µM (inactive) | > 100 µM (inactive) | > 100 µM (inactive) | > 100 µM (inactive) | > 100 µM (inactive) |  | > 100 µM (inactive) | > 100 µM (inactive) | 82 µM (inactive) | > 100 µM (inactive) | 38.5 µM (inactive) | > 100 µM (inactive) | > 100 µM (inactive) | 46.3 µM (inactive)
12 | COC(=O)C(=O)C(C(=O)C(=O)Nc1cccc(OC)c1)c1nc2ccc(Cl)cc2nc1O (stereo not given) | > 100 µM (inactive) | > 100 µM (inactive) | > 100 µM (inactive) | > 100 µM (inactive) | > 100 |  | > 100 µM (inactive) | > 100 µM (inactive) | > 100 µM (inactive) | > 100 µM (inactive) | > 100 µM (inactive) | > 100 µM (inactive) | > 100 µM (inactive) | > 100 µM (inactive) | > 100 µM (inactive) | > 100 µM (inactive) | > 100 µM (inactive) | > 100 µM (inactive) | > 100 µM (inactive)
13 | OCc1cc2c([nH]c3ccccc32)c(C(O)CO)n1 (stereo not given) | > 100 µM (inactive) | > 100 µM (inactive) | > 100 µM (inactive) | > 100 µM (inactive) | > 100 |  | > 100 µM (inactive) | > 100 µM (inactive) | > 100 µM (inactive) | > 100 µM (inactive) | > 100 µM (inactive) | > 100 µM (inactive) | > 100 µM (inactive) | > 100 µM (inactive) | > 100 µM (inactive) | > 100 µM (inactive) | > 100 µM (inactive) | > 100 µM (inactive) | > 100 µM (inactive)
14 | CN(C)CCCCN1CCc2c(n(C)c3ccccc23)C1=O | 61.1 µM (inactive) |  | > 55.8 µM (inactive) | 35.3 µM (inactive) | 39.4 | 51.3 µM (inactive) | 24.3 µM (inactive) | > 72.6 µM (inactive) | 23.4 µM (inactive) | 48.1 µM (inactive) | > 61.5 µM (inactive) |  |  | 20.3 µM (inactive) | 25.9 µM (inactive) | 21.3 µM (inactive) | > 70 µM (inactive) | 68.1 µM (inactive) | 56.9 µM (inactive)
15 | Cc1cccc(N(CC(=O)O)S(=O)(=O)c2ccccc2)c1 | > 100 µM (inactive) | > 100 µM (inactive) | > 100 µM (inactive) | > 100 µM (inactive) | > 100 |  | > 100 µM (inactive) | > 100 µM (inactive) | > 100 µM (inactive) | > 100 µM (inactive) | > 100 µM (inactive) | > 100 µM (inactive) | > 100 µM (inactive) | > 100 µM (inactive) | > 100 µM (inactive) | > 100 µM (inactive) | > 100 µM (inactive) | > 100 µM (inactive) | > 100 µM (inactive)
16 | CCOC(=O)C(=O)Nc1ccccc1C | > 100 µM (inactive) | > 100 µM (inactive) | > 100 µM (inactive) | > 100 µM (inactive) | > 100 | > 100 µM (inactive) |  | > 100 µM (inactive) | > 100 µM (inactive) | > 100 µM (inactive) | > 100 µM (inactive) | > 100 µM (inactive) | > 100 µM (inactive) | > 100 µM (inactive) | > 100 µM (inactive) | > 100 µM (inactive) | > 100 µM (inactive) | > 100 µM (inactive) | > 100 µM (inactive)
